Tested on: L. plantarum PN0512
Procedure: IC50 values were determined in shake flasks as follows. Duplicate glass test tubes containing 5 ml MRS medium plus 10 μg/ml chloramphenicol (MRS-Cm) were each inoculated with a single colony and grown for 24 h at 30° C. in a rollerdrum. 500 μl of each of these cultures were used to inoculate 25 ml MRS-Cm, which was grown for 16 h at 30° C. with shaking at 110 rpm. […] Cultures were grown at 30° C. with shaking at 110 rpm, and growth was measured by monitoring OD600. OD600 values that were clearly off the growth curve were discarded (less than 1% of values were discarded).
This is mathematically equivalent to drawing a line between (C1,I1) and (C2,I2) and finding the concentration at which that line intersects I=50%. An IC50 was calculated for each set of flasks inoculated from the same preculture. An average IC50 was also calculated.

For `CCCCO` [Strain 1-butanol, 1-butanol], the “1-butanol IC90” value was 2.3%.

Reference: patent US20120058541A1, “ENGINEERING RESISTANCE TO ALIPHATIC ALCOHOLS” (BUTAMAX(TM) ADVANCED BIOFUELS LLC, priority 2009, published 2012)
